In patent US8003783B2, “17B-hydroxysteroid dehydrogenase inhibitors” (Sterix Limited, priority 2004, dated 2011):
Where two headings read alike, the source gives them in different places.

Key:
17β-HSD1 = biological target: T1, 17β-HSD1 (Homo sapiens, UniProt P14061); assay: 17β-HSD Type I activity in T-47D cells (E1→E2); format: cell-based; conditions: for inhibition at 10 µM: T47D
T1 construct: was measured in intact cell monolayers of T47D and MDA-MB-231 breast cancer cells respectively; endogenous in cells; host or cells: T-47D human breast cancer cells
T1 sequence (P14061 1-328): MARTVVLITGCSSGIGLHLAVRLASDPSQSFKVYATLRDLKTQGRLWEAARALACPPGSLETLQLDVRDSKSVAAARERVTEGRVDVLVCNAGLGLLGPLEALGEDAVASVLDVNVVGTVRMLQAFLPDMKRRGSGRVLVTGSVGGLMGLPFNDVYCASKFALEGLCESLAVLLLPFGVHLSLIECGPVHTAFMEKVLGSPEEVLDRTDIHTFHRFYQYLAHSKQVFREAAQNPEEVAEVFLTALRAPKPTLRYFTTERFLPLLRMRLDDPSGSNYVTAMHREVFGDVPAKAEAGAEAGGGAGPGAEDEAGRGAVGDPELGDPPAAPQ

17β-HSD2 = biological target: T2, 17β-HSD2 (Homo sapiens, UniProt P37059); assay: 17β-HSD Type II activity in MDA-MB-231 cells (E2→E1); format: cell-based
T2 construct: was measured in intact cell monolayers of T47D and MDA-MB-231 breast cancer cells respectively; endogenous in cells; host or cells: MDA-MB-231 human breast cancer cells
T2 sequence (P37059 1-387): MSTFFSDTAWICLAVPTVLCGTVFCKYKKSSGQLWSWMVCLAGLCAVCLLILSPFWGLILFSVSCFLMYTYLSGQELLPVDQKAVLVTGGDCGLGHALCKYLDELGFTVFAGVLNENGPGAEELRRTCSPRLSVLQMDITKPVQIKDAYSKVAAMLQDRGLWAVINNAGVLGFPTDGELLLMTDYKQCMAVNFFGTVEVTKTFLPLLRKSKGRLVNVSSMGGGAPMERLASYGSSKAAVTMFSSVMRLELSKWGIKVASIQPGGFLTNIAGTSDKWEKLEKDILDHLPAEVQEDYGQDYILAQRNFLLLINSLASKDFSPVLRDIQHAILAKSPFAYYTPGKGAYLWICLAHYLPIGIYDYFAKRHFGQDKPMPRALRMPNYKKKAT

[1] = 10 μM, T-47D cells, E1→E2, read-out: % inhibition of 17β-HSD1 @ 10 μM
[2] = T-47D cells, E1→E2, read-out: IC50 (17β-HSD1)
[3] = 10 μM, MDA-MB-231 cells, E2→E1, read-out: % inhibition of 17β-HSD2 @ 10 μM
[4] = read-out: % inhibition of 17β-HSD1 @ 10 μM, 10 μM, T-47D cells, E1→E2
[5] = MDA-MB-231, read-out: % inhibition of 17β-HSD2 @ 10 μM

| SMILES | inhibition at 10 µM (17β-HSD1; [1]) | IC50 (17β-HSD1; [2]) | inhibition at 10 µM (17β-HSD2; [3]) | inhibition at 10 µM (17β-HSD1; [4]) | inhibition at 10 µM (17β-HSD2; [5]) | IC50 (17β-HSD1) |
| --- | --- | --- | --- | --- | --- | --- |
| COCCn1cc2c(n1)[C@@]1(C)CCC3c4ccc(O)cc4CCC3C1C2 (some centres unmarked) [compound 808] | 95% | 530 nM | 48% | – | – | – |
| COCCn1ncc2c1[C@@]1(C)CCC3c4ccc(O)cc4CCC3C1C2 (some centres unmarked) [compound 809] | 83% | – | 55% | – | – | – |
| CC(C)Cn1cc2c(n1)[C@@]1(C)CCC3c4ccc(O)cc4CCC3C1C2 (some centres unmarked) [compound 812] | – | – | – | 77% | 61% | – |
| CC(C)Cn1ncc2c1[C@@]1(C)CCC3c4ccc(O)cc4CCC3C1C2 (some centres unmarked) [compound 813] | – | – | – | 70% | 44% | – |
| C[C@]12CCC3c4ccc(O)cc4CCC3C1Cc1c2n[nH]c1O (some centres unmarked) [compound 820, 6a-Methyl-4b,5,6,6a,8,10,10a,10b,11,12-decahydro-7,8-diaza-pentaleno[2,1-a]phenanthrene-2,9-diol] | 86% | – | 7% | – | – | – |
| CC(NC(=O)C1CC2C3CCc4cc(O)ccc4C3CC[C@]2(C)[C@H]1O)c1ccccc1 (some centres unmarked) [compound 844] | 90% | – | 12% | – | – | 810 nM |
| C[C@]12CCC3c4ccc(O)cc4CCC3C1CC(C(=O)NCc1ccncc1)[C@@H]2O (some centres unmarked) [compound 845] | 87% | – | 2.5% | – | – | – |
| CC(C)NC(=O)c1[nH]nc2c1CC1C3CCc4cc(O)ccc4C3CC[C@]21C (some centres unmarked) [compound 857, 2-Hydroxy-6a-methyl-4b,5,6,6a,8,10,10a,10b,11,12-decahydro-7,8-diaza-pentaleno[2,1-a]phenanthrene-9-carboxylic acid isopropyl amide] | 57% | – | 0.3% | – | – | – |
| C[C@]12CCC3c4ccc(O)cc4CCC3C1Cc1c2n[nH]c1C(=O)NCc1cccnc1 (some centres unmarked) [compound 860, 2-Hydroxy-6a-methyl-4b,5,6,6a,8,10,10a,10b,11,12-decahydro-7,8-diaza-pentaleno[2,1-a]phenanthrene-9-carboxylic acid (pyridin-3-ylmethyl)-amide] | 92% | 780 nM | 28% | – | – | – |
| C[C@]12CCC3c4ccc(O)cc4CCC3C1Cc1c2n[nH]c1C(=O)NCC1CCCO1 (some centres unmarked) [compound 892] | – | – | – | 87% | -4% | – |
| CNC(=O)c1[nH]nc2c1CC1C3CCc4cc(O)ccc4C3CC[C@]21C (some centres unmarked) [compound 893] | – | – | – | 62% | 14% | – |
| CCN(C)C(=O)c1[nH]nc2c1CC1C3CCc4cc(O)ccc4C3CC[C@]21C (some centres unmarked) [compound 894] | 88% | – | 6% | – | – | – |
| Cn1cccc1CNC(=O)c1[nH]nc2c1CC1C3CCc4cc(O)ccc4C3CC[C@]21C (some centres unmarked) [compound 895] | – | 2300 nM | – | 89% | -4% | – |
| Cc1cnc(CNC(=O)c2[nH]nc3c2CC2C4CCc5cc(O)ccc5C4CC[C@]32C)cn1 (some centres unmarked) [compound 896] | – | – | – | 80% | 61% | – |
| CN1CCN(C(=O)c2[nH]nc3c2CC2C4CCc5cc(O)ccc5C4CC[C@]32C)CC1 (some centres unmarked) [compound 897] | – | – | – | 50% | -0.7% | – |
| C[C@]12CCC3c4ccc(O)cc4CCC3C1Cc1c2n[nH]c1C(=O)NCc1ccccn1 (some centres unmarked) [compound 915] | – | 880 nM | – | 93% | 9% | – |
| C[C@]12CCC3c4ccc(O)cc4CCC3C1Cc1c2n[nH]c1C(=O)NCCc1cccnc1 (some centres unmarked) [compound 916] | – | 300 nM | – | 98.5% | 3% | – |
| C[C@]12CCC3c4ccc(O)cc4CCC3C1Cc1cn(CCC#N)nc12 (some centres unmarked) [compound 921] | 95% | 730 nM | 44% | – | – | – |
| CC1(C#N)CC2C3CCc4cc(O)ccc4C3CC[C@]2(C)C1=O (some centres unmarked) [compound 924] | 85% | – | 12% | – | – | – |
| Cn1c2c(c(=O)n1C)CC1C3CCc4cc(O)ccc4C3CC[C@]21C (some centres unmarked) [compound 942] | 32% | – | 15% | – | – | – |
